Assay results as given in PMC4224572, “Peptidomimetic inhibitors of N-myristoyltransferase from human malaria and leishmaniasis parasites” (Organic & Biomolecular Chemistry, 2014).
Ends that are not written are not given here.

Key:
[1] = set-up: method as in earlier work; details: cited from earlier work
CaNMT = test system: CaNMT; set-up: method as in PMID 7783114; details: read-out: KM as CaNMT substrate; cited from earlier work
PvNMT [2] = target: T1, PvNMT (Plasmodium vivax, UniProt A5K1A2); assay: Fluorogenic NMT inhibition assay, PvNMT; type: biochemical; details: recombinant enzyme; mean of duplicate or triplicate experiments
T1 sequence (A5K1A2 1-410): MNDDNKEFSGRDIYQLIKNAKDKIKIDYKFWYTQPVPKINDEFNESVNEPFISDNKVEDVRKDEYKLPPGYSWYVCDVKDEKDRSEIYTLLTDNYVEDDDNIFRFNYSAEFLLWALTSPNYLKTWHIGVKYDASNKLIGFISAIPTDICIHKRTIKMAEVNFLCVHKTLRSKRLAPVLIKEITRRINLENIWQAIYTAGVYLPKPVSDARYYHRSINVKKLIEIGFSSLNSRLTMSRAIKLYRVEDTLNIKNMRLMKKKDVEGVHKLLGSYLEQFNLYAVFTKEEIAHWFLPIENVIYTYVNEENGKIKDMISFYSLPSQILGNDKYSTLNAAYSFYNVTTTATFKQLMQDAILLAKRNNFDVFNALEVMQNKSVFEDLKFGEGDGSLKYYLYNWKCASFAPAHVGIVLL
Text: (§1) 2-Methylimidazolyl analogues were synthesized building on the hypothesis that 2-methylimidazole (pK a ∼ 7.9)[18] is a reasonable mimetic for N-terminal Gly in the peptide substrate (pK a ∼ 8.0).[19] To cover a range of basicity, imidazolyl (pK a ∼ 7.0) and amine analogues (pK a ∼ 10.0) were also synthesized, each exploring a range of chain lengths (n) (Table 1). To probe versatility at the C-terminus, primary amides, carboxylic acids, 2-cyclohexylethyl and 2-(1-cyclohexenyl)ethyl amides were incorporated. Using a previously reported fluorogenic assay,[20] inhibitors were tested against the parasitic enzymes and HsNMT1 in order to explore their selectivity against a relevant host enzyme. […] Further reduction of the chain length (11 and 12, n = 8 and 7, respectively) led to loss of detectable activity against Plasmodium NMTs and significant loss of activity against LdNMT and HsNMT1.

PfNMT = target: T2, PfNMT (Plasmodium falciparum, UniProt Q9U419); assay: Fluorogenic NMT inhibition assay, PfNMT; type: biochemical; details: recombinant enzyme; mean of duplicate or triplicate experiments
T2 sequence (Q9U419 1-410): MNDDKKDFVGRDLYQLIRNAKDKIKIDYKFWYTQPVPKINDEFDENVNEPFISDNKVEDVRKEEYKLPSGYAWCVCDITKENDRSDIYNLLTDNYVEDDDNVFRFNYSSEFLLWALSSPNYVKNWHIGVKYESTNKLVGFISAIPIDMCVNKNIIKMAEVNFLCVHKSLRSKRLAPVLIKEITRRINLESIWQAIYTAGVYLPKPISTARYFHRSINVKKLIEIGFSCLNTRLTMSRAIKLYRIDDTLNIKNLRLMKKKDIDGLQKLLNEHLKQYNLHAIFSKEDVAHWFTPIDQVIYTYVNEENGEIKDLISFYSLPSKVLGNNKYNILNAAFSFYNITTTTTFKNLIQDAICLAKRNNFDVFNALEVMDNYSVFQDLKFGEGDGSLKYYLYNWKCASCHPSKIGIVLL
Text: as §1

HsNMT1 = target: T3, HsNMT1 (Homo sapiens, UniProt P30419); assay: Fluorogenic NMT inhibition assay, HsNMT1; type: biochemical, H. sapiens; details: mean of duplicate or triplicate experiments
T3 sequence (P30419 1-496): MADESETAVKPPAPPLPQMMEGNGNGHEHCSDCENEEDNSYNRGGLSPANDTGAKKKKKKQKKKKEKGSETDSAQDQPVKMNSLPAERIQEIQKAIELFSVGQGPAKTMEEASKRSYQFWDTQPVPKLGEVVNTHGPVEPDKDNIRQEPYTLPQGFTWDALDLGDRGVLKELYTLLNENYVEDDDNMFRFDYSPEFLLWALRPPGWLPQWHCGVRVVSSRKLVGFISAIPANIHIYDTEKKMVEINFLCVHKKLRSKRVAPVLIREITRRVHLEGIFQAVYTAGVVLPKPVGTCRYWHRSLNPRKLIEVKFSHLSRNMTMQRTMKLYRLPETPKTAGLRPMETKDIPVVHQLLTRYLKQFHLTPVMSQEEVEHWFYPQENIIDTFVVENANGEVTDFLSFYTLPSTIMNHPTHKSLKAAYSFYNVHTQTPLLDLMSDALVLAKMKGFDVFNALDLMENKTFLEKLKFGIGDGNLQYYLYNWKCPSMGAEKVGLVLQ
Text: 2-Methylimidazolyl analogues were synthesized building on the hypothesis that 2-methylimidazole (pK a ∼ 7.9)[18] is a reasonable mimetic for N-terminal Gly in the peptide substrate (pK a ∼ 8.0).[19] To cover a range of basicity, imidazolyl (pK a ∼ 7.0) and amine analogues (pK a ∼ 10.0) were also synthesized, each exploring a range of chain lengths (n) (Table 1). To probe versatility at the C-terminus, primary amides, carboxylic acids, 2-cyclohexylethyl and 2-(1-cyclohexenyl)ethyl amides were incorporated. Using a previously reported fluorogenic assay,[20] inhibitors were tested against the parasitic enzymes and HsNMT1 in order to explore their selectivity against a relevant host enzyme.

Leishmania NMT = assay: Substrate characteristics in Leishmania NMT; type: biochemical
Experimental: (§2) Unexpectedly, the electron maps indicated a mixture of ligand structures such that ∼20% of the electron density represents a N-myristoylated 10 product complex with the CoA by-product in LmNMT (Fig. 2D). This is the only structural evidence for a product complex in any N-myristoyltransferase, and captures and supports the proposed mechanism of action of NMT just prior to regeneration of the active enzyme. Kinetic experiments were performed to study 10 both as a potential substrate and as an NMT inhibitor. […] The N-myristoylation of 10 observed above therefore presumably occurs within the crystal where all reagents are present at high effective concentrations, and turnover is blocked by limited egress of products.
To probe the degree to which 10 acts as a true peptidomimetic, we investigated the potential to switch from inhibitor to a peptidomimetic substrate. […] In native NMT substrates, N-terminal Gly is preferred to the exclusion of all other residues, with relatively non-sterically demanding residues such as alanine. […]
(§3) [Substrate] (µM) [S b[Substrate] (µM) tt ]
Hs pp60src(2-9) Compound 10 Compound 27 Compound 28
Figure S4: Substrate characteristics of H. sapiens p60src(2-16), compound 10 and modified
inhibitors 27 and 28 in Leishmania NMT.

LdNMT = assay: Fluorogenic NMT inhibition assay, LdNMT; type: biochemical, L. donovani
Text: as §1

PvNMT [3] = target: T1, PvNMT; assay: Kinetic assay and Lineweaver-Burk plot, competitiveness of compound 10; type: biochemical
Experimental: as §2, with “products. […]” for “products.”
3. Kinetic studies of Compound 10. […]
1 / [Sub s tr ate] Rate / [Su b s tr ate]
No inhibitor 0.6 μM 1.2 μM 2.4 μM
Figure S3: Kinetic assay and Lineweaver-Burk plot studying the competitiveness of
as §3

Cc1ncc[nH]1 [2-methylimidazole]
pKa [1]: ~7.9

GLYASKLS-NH2 [CaNMT octapeptide substrate]
Km (CaNMT): 0.6 µM

NCCCCCCCCCC(=O)N[C@@H](CO)C(=O)N[C@@H](CCCCN)C(=O)NCCC1CCCCC1 [Compound 10]
IC50 (PvNMT [2]): 680 ± 80 nM | IC50 (PfNMT): 24300 ± 3400 nM | IC50 (HsNMT1): 60 ± 3 nM | KM as substrate (Leishmania NMT; Leishmania NMT): Not measurable | Vmax as substrate (Leishmania NMT; Leishmania NMT): Not measurable | substrate activity (Leishmania NMT; compound 10 tested up to 40 μM): no substrate characteristics were detected | IC50 (LdNMT; recombinant enzyme, mean of duplicate or triplicate experiments): 24 ± 3 nM | potency against LdNMT, fold higher than 2 (1H-imidazol-1-yl) (LdNMT; relative to compound 2): over 400 fold | potency against LdNMT, fold higher than 6 (2-methyl-1H-imidazol-1-yl) (LdNMT; relative to compound 6): > 20 fold | Vmax of substrate in presence of inhibitor (PvNMT [3]; 0.6 μM compound 10): 20701.0 ± 1047.4 | Vmax of substrate in presence of inhibitor (PvNMT [3]; 1.2 μM compound 10): 19563.0 ± 1520.6 | Vmax of substrate in presence of inhibitor (PvNMT [3]; 2.4 μM compound 10): 21120.3 ± 1651.4 | mode of inhibition (PvNMT [3]; kinetic studies, Fig. S3): peptide-competitive inhibitor
